According to patent US10532065B2, “Bisphosphonic acid derivative and application for same” (NAGASAKI UNIVERSITY, priority 2014, dated 2020):
“Also recorded” adds a separate entry of the source.

Columns and labels:
[1] = test system: γδ T cells in peripheral blood mononuclear cells of a healthy adult; conditions: healthy adult PBMC, 1 μM, IL-2, 14 days of culture
Description: Mononuclear cells were obtained by the specific gravity centrifugation method from the peripheral blood of a healthy adult. The obtained mononuclear cells were suspended in Yssel medium at 1.8×10^6 cells/ml, and seeded by 1.5 ml in each well of a 24-well plate. Compound 7 was added to each well at a concentration of 1 μM, and cultured at 37° C. under 5% CO2 atmosphere. After one day of culture, IL-2 was added at a concentration of 100 IU/ml, and the cells were cultured in the presence of 100 IU/ml IL-2 thereafter up to day 6, and cultured in the presence of 30 IU/ml IL-2 from day 7. After 14 days of culture, the cells were recovered, and cell surface molecule was analyzed by flow cytometry using labeled anti-CD3 antibody and labeled anti-Vδ2 antibody. As a control, an antibody having the same isotype as anti-CD3 antibody and anti-Vδ2 antibody but irrelevant thereto was used. The ratio (%) of γδ T cells having the Vδ2 region in CD3 cells was determined.

[2] = test system: γδ T cells in peripheral blood mononuclear cells of breast cancer patients; conditions: breast cancer patient PBMC, IL-2, 17 days of culture
Description: The obtained mononuclear cells were suspended in Yssel medium at 1.8×10^6 cells/ml, and seeded by 1.5 ml in each well of a 24-well plate. Compound 7 was added to each well at a concentration of 1 μM, and cultured at 37° C. under 5% CO2 atmosphere. After one day of culture, IL-2 was added at a concentration of 100 IU/ml, and the cells were cultured in the presence of 100 IU/ml IL-2 thereafter up to day 6, and cultured in the presence of 30 IU/ml IL-2 from day 7. After 14 days of culture, the cells were recovered, and cell surface molecule was analyzed by flow cytometry using labeled anti-CD3 antibody and labeled anti-Vδ2 antibody. As a control, an antibody having the same isotype as anti-CD3 antibody and anti-Vδ2 antibody but irrelevant thereto was used. The ratio (%) of γδ T cells having the Vδ2 region in CD3 cells was determined.
In the same manner as in Experimental Example 21 except that mononuclear cells obtained from the peripheral blood of breast cancer patients were used, compound 7 was added, and the cells were cultured at 37° C. under 5% CO2 atmosphere. […] After 17 days of culture, the cells were recovered, and cell surface molecule was analyzed by flow cytometry in the same manner as in Experimental Example 21. Also, the ratio (%) of γδ T cells having the Vδ2 region in CD3 cells was determined.

[3] = test system: farnesyl diphosphate synthase (geranylgeranylation of Rap1A); assay: Rap1A geranylgeranylation inhibition in tumor cells (Western blotting); assay type: cell-based; conditions: non-geranylgeranylated Rap1A, 16 hr, various tumor cell lines (FIG. 9)
Description: To verify this mechanism, whether the farnesyl diphosphate synthase is inhibited in the cell needs to be confirmed. If farnesyl diphosphate synthase is inhibited, intracellular concentration of geranylgeranyl diphosphate decreases, and geranylgeranylation of Rap1A small G protein is inhibited. The inhibitory effect thereof is clarified by quantifying the inhibition of geranylgeranylation of Rap1A. […] As the tumor cells, MOLT-3, PEER, C1R, J.RT3-T3.5, Raji, RAMOS-RA1, MOLT-4, HL60, U937, THP-1, SCC-3, P31/FUJ, K562, NOMO-1, YMB-1-E, MRK-nu-1, HMC-1-8, MCF-7, MDA-MB-231, T-47D, SK-BR-3, 786-0, VMRC-RCZ, UOK121, Caki-1, A-704, BxPC-3, KP4-1, KP4-2, KP4-3, MiaPaCa-2, TGBC24TKB, ACS, MG-63, LK-2, EJ-1 were used. […] Thereto was added 10 mM stock solution of compound 7 to a final concentration of 10 μM, 1 μM, 100 nM, 10 nM, 1 nM, 100 pM, 10 pM, 1 pM. These flasks were cultured at 37° C. under 5% CO2 atmosphere for 16 hr. Non-adherent cells were left unattended, and adherent cells were recovered using EDTA/trypsin solution. […] The supernatant was removed, and suspended in cell lysis solution (100 μl) composed of 1% NP-40, 0.1% SDS, 0.5% sodium deoxycholate. […]
To quantitatively analyze the inhibitory efficiency thereof, the concentration of a compound that inhibits geranylgeranylation of Rap1A by half was calculated as EC50 value and studied by comparison. […]

CC(C)(C)C(=O)OCOP(=O)(OCOC(=O)C(C)(C)C)C(CNc1nccs1)P(=O)(OCOC(=O)C(C)(C)C)OCOC(=O)C(C)(C)C [Compound 7, tetrakispivaloyloxymethyl 2-(thiazol-2-ylamino) ethylidene-1,1-bisphosphonate] was tested, and the “ratio (%) of γδ T cells having the Vδ2 region in CD3 cells” value [1] was 99.8%, the “ratio (%) of γδ T cells having the Vδ2 region in CD3 cells (purity)” value [2] was “not less than 96%” and the “farnesyl diphosphate synthase inhibitory action in cells (in words)” value [3] was “inhibits efficiently, in any tumor cells, farnesyl diphosphate synthase; also recorded: high farnesyl diphosphate synthase inhibitory action in lymphatic tumor cells and myeloidic tumor cells”.
